This passage reports T/C results from PubChem BioAssay AID328 (DTP/NCI, 2004).

The test system of this assay is BDF1 mice, P388 leukemia ip, median survival T/C. Nature of the assay: NCI In Vivo Anticancer Drug Screen. Data for tumor model P388 Leukemia (intraperitoneal) in B6D2F1 (BDF1) mice. The note with it: endpoint: median survival time, higher = longer survival. As for the experimental part:
The antitumor activity of compounds was measured in mice bearing transplantable tumors. Survival or tumor size were measured and the results are expressed as the measurement made in the treated group (T) divided by the measurement made in the vehicle treated control group (C). The tumor model used in this assay is P388 Leukemia (intraperitoneal) in B6D2F1 (BDF1) mice

Setting [1] is: dose: 100.0 mg/kg/injection, schedule: Q01DX009 (ip), vehicle: Klucel (hydroxypropylcellulose) (HPC).
Where [2] appears, read: dose: 50.0 mg/kg/injection, schedule: Q01DX009 (ip), vehicle: saline.
Where [3] appears, read: dose: 200.0 mg/kg/injection, schedule: Q01DX009 (ip), vehicle: saline.
The mark [4] stands for this setting: dose: 50.0 mg/kg/injection, schedule: Q04DX003 (ip), vehicle: saline.
The mark [5] stands for this setting: dose: 100.0 mg/kg/injection, schedule: Q01DX009 (ip), vehicle: saline.
The mark [6] stands for this setting: dose: 100.0 mg/kg/injection, schedule: Q04DX003 (ip), vehicle: saline.
[7] abbreviates: dose: 200.0 mg/kg/injection, schedule: Q04DX003 (ip), vehicle: saline.
Where [8] appears, read: dose: 50.0 mg/kg/injection, schedule: Q01DX009 (ip), vehicle: saline with Tween-80.
Setting [9] is: dose: 100.0 mg/kg/injection, schedule: Q01DX009 (ip), vehicle: saline with Tween-80.
The mark [10] stands for this setting: dose: 200.0 mg/kg/injection, schedule: Q01DX009 (ip), vehicle: saline with Tween-80.
[11] abbreviates: dose: 25.0 mg/kg/injection, schedule: Q01DX009 (ip), vehicle: saline.
The mark [12] stands for this setting: dose: 100.0 mg/kg/injection, schedule: Q04DX003 (ip), vehicle: saline with Tween-80.
Setting [13] is: dose: 200.0 mg/kg/injection, schedule: Q04DX003 (ip), vehicle: saline with Tween-80.

Structures are written as SMILES. Where “and” joins values, the source holds several entries; their conditions need not be identical. Equal entries are not always repeated. Inconclusive results and toxic doses are left out.

Regarding `CC/C(=C(/CC)c1ccc(O)cc1)c1ccc(O)cc1`, the T/C by setting is: (dose: 12.5 mg/kg/injection, schedule: Q01DX009 (ip), vehicle: carboxymethylcellulose (CMC)) 105 % of control; (dose: 12.5 mg/kg/injection, schedule: Q01DX010 (ip), vehicle: saline) 100 % of control and 110 % of control; (dose: 25.0 mg/kg/injection, schedule: Q01DX009 (ip), vehicle: carboxymethylcellulose (CMC)) 89 % of control and 93 % of control; (dose: 25.0 mg/kg/injection, schedule: Q01DX010 (ip), vehicle: saline) 110 % of control; (dose: 50.0 mg/kg/injection, schedule: Q01DX008 (ip), vehicle: saline with Tween-80) 114 % of control and 120 % of control; (dose: 50.0 mg/kg/injection, schedule: Q01DX009 (ip), vehicle: carboxymethylcellulose (CMC)) 97 % of control. Moreover, the T/C is, setting by setting: (dose: 50.0 mg/kg/injection, schedule: Q01DX010 (ip), vehicle: saline) 100 % of control and 115 % of control; (dose: 100.0 mg/kg/injection, schedule: Q01DX008 (ip), vehicle: saline with Tween-80) 110 % of control and 116 % of control; (dose: 100.0 mg/kg/injection, schedule: Q01DX009 (ip), vehicle: carboxymethylcellulose (CMC)) 88 % of control and 90 % of control; (dose: 100.0 mg/kg/injection, schedule: Q01DX010 (ip), vehicle: saline) 90 % of control and 95 % of control; (dose: 200.0 mg/kg/injection, schedule: Q01DX008 (ip), vehicle: saline with Tween-80) 111 % of control and 112 % of control; (dose: 200.0 mg/kg/injection, schedule: Q01DX009 (ip), vehicle: carboxymethylcellulose (CMC)) 114 % of control. Also, the T/C (dose: 400.0 mg/kg/injection, schedule: Q01DX008 (ip), vehicle: saline with Tween-80) was 112 % of control.

For `NC(=O)C(N)=O`, the T/C under setting [1] was 103 % of control; the T/C (dose: 200.0 mg/kg/injection, schedule: Q01DX009 (ip), vehicle: Klucel (hydroxypropylcellulose) (HPC)) was 93 % of control; the T/C (dose: 400.0 mg/kg/injection, schedule: Q01DX009 (ip), vehicle: Klucel (hydroxypropylcellulose) (HPC)) is 109 % of control.

On to `CN(C)C1Cc2ccccc2C1OC(=O)c1ccccc1` (configuration not stated), for which the T/C runs as follows: under setting [2], 103 % of control; under setting [3], 91 % of control.

As for `CCC(O)Cc1c[nH]c(=O)[nH]c1=O` (configuration not stated), the T/C is, setting by setting: under setting [2], 90 % of control; under setting [4], 104 % of control; under setting [5], 105 % of control; under setting [6], 102 % of control; under setting [3], 112 % of control; under setting [7], 109 % of control.

On to `C(=C\c1nc2ccccc2[nH]1)/c1nc2ccccc2[nH]1`, for which the T/C reads like this: (dose: 25.0 mg/kg/injection, schedule: Q01DX009 (ip), vehicle: saline with Tween-80) 100 % of control; under setting [8], 100 % of control; under setting [9], 92 % of control; under setting [10], 98 % of control.

Turning to `C=C1C(=O)OC2CC(C)C3(O)OC(C)(CC(OC(=O)C(C)C)C12)CC3O` (configuration not stated), the T/C by setting is: (dose: 13.0 mg/kg/injection, schedule: Q01DX009 (ip), vehicle: saline) 120 % of control; under setting [11], 110 % of control; under setting [2], 95 % of control.

In the case of `Clc1cc(Cl)c(CBr)cc1CBr`, the T/C is, setting by setting: (dose: 3.13 mg/kg/injection, schedule: Q01DX009 (ip), vehicle: saline with Tween-80) 109 % of control; (dose: 6.25 mg/kg/injection, schedule: Q01DX009 (ip), vehicle: saline with Tween-80) 100 % of control; (dose: 12.5 mg/kg/injection, schedule: Q01DX009 (ip), vehicle: saline with Tween-80) 104 % of control.

For the molecule `COC(=O)C1CN(c2ccccc2)N=C1C(C)=O` (configuration not stated), the T/C was 89 % of control under setting [12] and 86 % of control under setting [13].

For the molecule `CC(C)(C)OOC(=O)c1ccccc1O`, the T/C by setting is: (dose: 12.5 mg/kg/injection, schedule: Q04DX003 (ip), vehicle: other) 102 % of control; (dose: 25.0 mg/kg/injection, schedule: Q04DX003 (ip), vehicle: other) 101 % of control; under setting [8], 122 % of control; (dose: 50.0 mg/kg/injection, schedule: Q04DX003 (ip), vehicle: other) 101 % of control; (dose: 100.0 mg/kg/injection, schedule: Q04DX003 (ip), vehicle: other) 118 % of control.

Regarding `Cc1ccc(C(SCC(N)C(=O)O)(c2ccccc2)c2ccccc2)cc1` (configuration not stated), the T/C was 260 % of control (dose: 132.0 mg/kg/injection, schedule: Q04DX003 (ip), vehicle: saline with Tween-80); 260 % of control under setting [13]; 95 % of control (dose: 300.0 mg/kg/injection, schedule: Q04DX003 (ip), vehicle: saline with Tween-80).

In the case of `O=S(=O)(Nc1ccc(O)cc1)c1ccccc1`, the T/C under setting [12] was 100 % of control; the T/C under setting [13] was 95 % of control; the T/C (dose: 400.0 mg/kg/injection, schedule: Q04DX003 (ip), vehicle: saline with Tween-80) is 104 % of control.

Consider `Cn1nnnc1[N-]Cc1ccccc1.[Au+].c1ccc([PH+](c2ccccc2)c2ccccc2)cc1`, for which the T/C was 111 % of control (dose: 12.5 mg/kg/injection, schedule: Q01DX001 (ip), vehicle: saline with Tween-80); 111 % of control (dose: 25.0 mg/kg/injection, schedule: Q01DX001 (ip), vehicle: saline with Tween-80); 123 % of control (dose: 50.0 mg/kg/injection, schedule: Q01DX001 (ip), vehicle: saline with Tween-80).

In the case of `CC(=O)Nc1ccn(CC(=O)c2cccs2)c(=O)n1`, the T/C runs as follows: under setting [5], 90 % of control; under setting [6], 86 % of control; under setting [3], 95 % of control; under setting [7], 86 % of control; (dose: 400.0 mg/kg/injection, schedule: Q01DX009 (ip), vehicle: saline) 90 % of control; (dose: 400.0 mg/kg/injection, schedule: Q04DX003 (ip), vehicle: saline) 100 % of control.

For `O=S(=O)(C1=CCCCC1)C1=CCCCC1`, the T/C was 104 % of control (dose: 25.0 mg/kg/injection, schedule: Q04DX003 (ip), vehicle: saline with Tween-80); 99 % of control (dose: 50.0 mg/kg/injection, schedule: Q04DX003 (ip), vehicle: saline with Tween-80); 88 % of control and 100 % of control under setting [12].

For `N#CC(O)c1ccccc1` (configuration not stated), the T/C is 107 % of control (dose: 2.5 mg/kg/injection, schedule: Q01DX010 (ip), vehicle: acetone); 92 % of control (dose: 5.0 mg/kg/injection, schedule: Q01DX010 (ip), vehicle: acetone); 92 % of control (dose: 10.0 mg/kg/injection, schedule: Q01DX010 (ip), vehicle: acetone).

For `OCc1ccccc1F`, the T/C is, setting by setting: under setting [9], 88 % of control; under setting [12], 100 % of control; under setting [10], 103 % of control; under setting [13], 109 % of control; (dose: 400.0 mg/kg/injection, schedule: Q01DX009 (ip), vehicle: saline with Tween-80) 111 % of control.

With `O=[N+]([O-])CC(O)c1ccc2ccccc2n1` (configuration not stated), the T/C runs as follows: under setting [11], 86 % of control; under setting [2], 86 % of control; under setting [4], 109 % of control; under setting [5], 89 % of control; under setting [6], 95 % of control; under setting [7], 90 % of control.

As for `CN(C)NP(=O)(NN(C)C)N(C)C`, the T/C is 100 % of control under setting [4], 113 % of control under setting [6] and 95 % of control under setting [7].

Regarding `COc1ccc(C(=O)/C=C/c2ccccc2)c(O)c1CC=C(C)C` (tested in a mixture with another compound), the T/C reads like this: (dose: 3.12 mg/kg/injection, schedule: Q01DX009 (ip), vehicle: Klucel (hydroxypropylcellulose) (HPC)) 90 % of control; (dose: 6.25 mg/kg/injection, schedule: Q01DX009 (ip), vehicle: Klucel (hydroxypropylcellulose) (HPC)) 102 % of control; (dose: 12.5 mg/kg/injection, schedule: Q01DX009 (ip), vehicle: Klucel (hydroxypropylcellulose) (HPC)) 107 % of control; (dose: 25.0 mg/kg/injection, schedule: Q01DX009 (ip), vehicle: Klucel (hydroxypropylcellulose) (HPC)) 109 % of control; (dose: 50.0 mg/kg/injection, schedule: Q01DX009 (ip), vehicle: Klucel (hydroxypropylcellulose) (HPC)) 91 % of control; under setting [1], 92 % of control.
